{
  "source": "patent US6313333A",
  "about": "“Multinuclear cationic platinum complexes with antitumor activity” (Setanta Therapeutics, Inc., priority 1997, dated 2001)",
  "data": [
    {"test_system": "murine leukemia L1210", "conditions": "l1210 cells", "units": {"IC50, \"in vitro\" cytotoxic activity against murine leukemia L1210": "µg/mL"}, "values": [
      {"molecule": "N.N.N.N.N.N.NCCCCCCN.NCCCCCCN.O=[N+]([O-])[O-].O=[N+]([O-])[O-].O=[N+]([O-])[O-].O=[N+]([O-])[O-].[Cl-].[Cl-].[Pt+2].[Pt+2].[Pt+2]", "note": "[t,t,t-[PtCl(NH3)2 H2 N(CH2)6 NH2 Pt(NH3)2 H2 N(CH2)6 NH2 PtCl(NH3)2]^+4.4NO3^-]", "IC50, \"in vitro\" cytotoxic activity against murine leukemia L1210": 0.38},
      {"molecule": "t,t,t,t,t-[PtCl(NH3)2 H2 N--(CH2)6 --NH2 Pt--(NH3)2 H2 N--(CH2)6 --NH2 Pt(NH3)2 H2 N--(CH2)6 --NH2 Pt(NH3)2 H2 N--(CH2)6 --NH2 PtCl(NH3)2 ]^+8.8Cl^-", "IC50, \"in vitro\" cytotoxic activity against murine leukemia L1210": 0.3},
      {"molecule": "t,t-[PtCl(NH3)2 H2 N--(CH2)6 --NH2 PtCl(NH3)2 ]^+2.2NO3^-", "IC50, \"in vitro\" cytotoxic activity against murine leukemia L1210": 2.3}
    ]}
  ]
}
